How the values were obtained:
[1] = Selectivity ratio of IC50 for MMP2 to IC50 for MMP13
Stromelysin-1 = Stromelysin-1 (Homo sapiens, UniProt P08254); assay: Inhibition of MMP3
Neutrophil collagenase = Neutrophil collagenase (Homo sapiens, UniProt P22894); assay: Inhibition of MMP8
[2] = target: 72 kDa type IV collagenase (Homo sapiens, UniProt P08253); assay: Inhibition of MMP2
Interstitial collagenase = Interstitial collagenase (Homo sapiens, UniProt P03956); assay: Inhibition of MMP1
Matrilysin = target: T1, Matrilysin (Homo sapiens, UniProt P09237); assay: Inhibition of MMP7
T1 sequence (P09237 whole entry): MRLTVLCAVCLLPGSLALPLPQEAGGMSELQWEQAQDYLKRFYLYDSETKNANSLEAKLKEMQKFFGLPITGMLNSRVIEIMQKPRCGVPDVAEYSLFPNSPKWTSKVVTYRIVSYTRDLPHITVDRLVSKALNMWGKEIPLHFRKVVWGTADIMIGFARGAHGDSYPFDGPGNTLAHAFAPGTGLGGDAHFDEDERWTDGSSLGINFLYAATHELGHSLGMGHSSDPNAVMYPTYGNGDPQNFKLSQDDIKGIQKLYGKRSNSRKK

Collagenase 3 = Collagenase 3 (Homo sapiens, UniProt P45452); assay: Inhibition of MMP13
[3] = Oral bioavailability in rat; type: ADME, organism-based; settings: in vivo
[4] = Half life in rat; type: ADME, organism-based; settings: in vivo

Chain of Interstitial collagenase (P03956 whole entry): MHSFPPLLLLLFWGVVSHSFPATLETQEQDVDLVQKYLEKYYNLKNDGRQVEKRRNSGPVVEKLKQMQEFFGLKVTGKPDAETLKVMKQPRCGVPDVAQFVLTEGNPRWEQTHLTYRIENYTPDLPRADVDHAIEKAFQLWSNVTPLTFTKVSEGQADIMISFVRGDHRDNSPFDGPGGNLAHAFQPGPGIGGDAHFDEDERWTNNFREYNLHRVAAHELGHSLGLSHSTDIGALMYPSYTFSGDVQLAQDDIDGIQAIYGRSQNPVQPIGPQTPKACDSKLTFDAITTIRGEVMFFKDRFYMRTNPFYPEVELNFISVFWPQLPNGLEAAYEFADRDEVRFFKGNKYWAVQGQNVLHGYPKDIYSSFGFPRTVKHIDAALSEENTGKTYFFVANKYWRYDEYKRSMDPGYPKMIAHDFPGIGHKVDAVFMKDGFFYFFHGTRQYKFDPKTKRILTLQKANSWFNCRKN
Chain of Stromelysin-1 (P08254 whole entry): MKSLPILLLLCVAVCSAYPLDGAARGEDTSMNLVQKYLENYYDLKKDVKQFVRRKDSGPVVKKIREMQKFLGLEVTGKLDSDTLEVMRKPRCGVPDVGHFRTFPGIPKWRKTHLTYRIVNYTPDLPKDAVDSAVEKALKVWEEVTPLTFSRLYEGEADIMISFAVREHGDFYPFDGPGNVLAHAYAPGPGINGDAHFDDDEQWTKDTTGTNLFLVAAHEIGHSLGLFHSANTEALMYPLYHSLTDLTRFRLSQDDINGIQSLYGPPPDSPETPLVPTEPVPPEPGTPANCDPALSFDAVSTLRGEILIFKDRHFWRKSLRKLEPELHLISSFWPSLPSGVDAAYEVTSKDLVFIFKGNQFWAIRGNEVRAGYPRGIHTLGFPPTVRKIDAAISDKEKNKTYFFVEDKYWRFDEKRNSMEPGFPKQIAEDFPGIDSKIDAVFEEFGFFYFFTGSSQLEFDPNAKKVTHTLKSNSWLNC
Chain of 72 kDa type IV collagenase (P08253 whole entry): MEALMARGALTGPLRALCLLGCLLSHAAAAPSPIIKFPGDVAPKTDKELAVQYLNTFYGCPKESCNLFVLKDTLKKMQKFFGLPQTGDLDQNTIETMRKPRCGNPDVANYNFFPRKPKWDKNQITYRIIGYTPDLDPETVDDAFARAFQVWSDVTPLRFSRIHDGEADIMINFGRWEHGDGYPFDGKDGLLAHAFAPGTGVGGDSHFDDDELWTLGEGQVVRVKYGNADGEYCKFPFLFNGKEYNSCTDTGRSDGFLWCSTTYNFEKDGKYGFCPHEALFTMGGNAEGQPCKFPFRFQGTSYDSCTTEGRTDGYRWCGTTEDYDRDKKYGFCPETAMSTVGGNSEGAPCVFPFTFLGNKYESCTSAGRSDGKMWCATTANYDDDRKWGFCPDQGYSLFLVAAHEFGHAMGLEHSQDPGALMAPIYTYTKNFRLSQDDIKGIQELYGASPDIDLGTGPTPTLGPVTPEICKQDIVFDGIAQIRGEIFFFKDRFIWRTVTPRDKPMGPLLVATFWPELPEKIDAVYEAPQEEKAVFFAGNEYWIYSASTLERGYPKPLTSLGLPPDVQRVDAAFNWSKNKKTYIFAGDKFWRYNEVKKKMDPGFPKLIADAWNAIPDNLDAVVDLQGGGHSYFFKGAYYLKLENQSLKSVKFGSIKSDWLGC
Chain of Neutrophil collagenase (P22894 whole entry): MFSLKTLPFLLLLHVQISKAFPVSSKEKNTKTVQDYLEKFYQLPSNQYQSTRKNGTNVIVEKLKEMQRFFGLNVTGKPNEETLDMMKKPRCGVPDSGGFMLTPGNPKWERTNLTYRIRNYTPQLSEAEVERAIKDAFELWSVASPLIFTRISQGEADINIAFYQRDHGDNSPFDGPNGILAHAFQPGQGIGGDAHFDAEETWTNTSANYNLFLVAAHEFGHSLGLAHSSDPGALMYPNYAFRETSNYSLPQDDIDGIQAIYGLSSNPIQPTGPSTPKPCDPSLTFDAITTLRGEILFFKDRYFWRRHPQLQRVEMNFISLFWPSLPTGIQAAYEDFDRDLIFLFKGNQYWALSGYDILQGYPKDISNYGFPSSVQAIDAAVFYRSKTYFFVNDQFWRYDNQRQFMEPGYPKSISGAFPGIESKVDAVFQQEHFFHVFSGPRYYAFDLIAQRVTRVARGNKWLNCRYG

Structure (SMILES)	Ratio IC50 [1]	IC50 [2]	IC50 (Collagenase 3)	further results
C#CCN1CCC(C(=O)NO)(S(=O)(=O)c2ccc(Sc3ccccc3)cc2)CC1	–	0.33 nM	–	IC50 (Stromelysin-1): 13 nM; IC50 (Neutrophil collagenase): 1.8 nM; IC50 (Interstitial collagenase): 8660 nM; IC50 (Matrilysin): > 10000 nM
COc1ccc(OC)c(C2CCN(c3ccc(S(=O)(=O)C4(C(=O)NO)CCOCC4)cc3)CC2)c1	70.2	800 nM	11.4 nM	–
COc1ccc(C(C)C)cc1C1CCN(c2ccc(S(=O)(=O)C3(C(=O)NO)CCOCC3)cc2)CC1	143	> 10000 nM	70 nM	–
O=C(NO)C1(S(=O)(=O)c2ccc(N3CCC(c4ccccc4Cl)CC3)cc2)CCOCC1	1.9	82 nM	42.5 nM	–
O=C(NO)C1(S(=O)(=O)c2ccc(N3CCC(c4ccccc4C(F)(F)F)CC3)cc2)CCOCC1	31.3	–	–	–
COc1ccc(N2CCN(c3ccc(S(=O)(=O)C4(C(=O)NO)CCN(C5CC5)CC4)cc3)CC2)cc1	–	5.3 nM	0.42 nM	bioavailability [3]: 20.7%; IC50 (Stromelysin-1): 24.5 nM; IC50 (Neutrophil collagenase): 59.2 nM; IC50 (Interstitial collagenase): > 10000 nM; half-life [4]: 0.24 h
COc1ccc(C2CCN(c3ccc(S(=O)(=O)C4(C(=O)NO)CCOCC4)cc3)CC2)c(C)c1	72.1	–	–	–
O=C(NO)C1(S(=O)(=O)c2ccc(N3CCN(c4ccc(C(F)(F)F)cc4)CC3)cc2)CCN(C2CC2)CC1	13.6	32.6 nM	2.4 nM	–
O=C(NO)C1(S(=O)(=O)c2ccc(N3CCC(c4ccccc4)CC3)cc2)CCOCC1	0.7	–	–	–
O=C(NO)C1(S(=O)(=O)c2ccc(N3CCC(c4ccccc4O)CC3)cc2)CCOCC1	6.2	–	–	–
O=C(NO)C1(S(=O)(=O)c2ccc(N3CCN(c4ccccc4)CC3)cc2)CCN(C2CC2)CC1	1.6	5.4 nM	3.3 nM	–
COc1ccc(C2CCN(c3ccc(S(=O)(=O)C4(C(=O)NO)CCOCC4)cc3)CC2)c(OC)c1	159	–	–	–
O=C(NO)C1(S(=O)(=O)c2ccc(N3CCC(c4cccc5ccccc45)CC3)cc2)CCOCC1	43.9	–	–	–
CCOc1ccccc1C1CCN(c2ccc(S(=O)(=O)C3(C(=O)NO)CCOCC3)cc2)CC1	88.6	–	–	–
O=C(NO)C1(S(=O)(=O)c2ccc(N3CCC(c4ccccc4-c4ccc(F)cc4)CC3)cc2)CCOCC1	160	–	–	–
O=C(NO)C1(S(=O)(=O)c2ccc(N3CCN(c4ccc(C(F)(F)F)cc4)CC3)cc2)CCOCC1	–	12.1 nM	0.6 nM	bioavailability [3]: 16.3%; IC50 (Stromelysin-1): 300 nM; IC50 (Neutrophil collagenase): 670 nM; IC50 (Interstitial collagenase): > 10000 nM; IC50 (Matrilysin): > 10000 nM; half-life [4]: 2.59 h
O=C(NO)C1(S(=O)(=O)c2ccc(N3CCC(c4ccc(Cl)cc4)CC3)cc2)CCOCC1	2.9	–	–	–

Now from value to compound, other results behind:

Ratio IC50 [1]	IC50 [2]	IC50 (Collagenase 3)	Structure (SMILES)	further results
4.4	–	–	O=C(NO)C1(S(=O)(=O)c2ccc(N3CCN(c4ccccc4Cl)CC3)cc2)CCOCC1	–
49	1400 nM	28.6 nM	Cc1ccc(N2CCN(c3ccc(S(=O)(=O)C4(C(=O)NO)CCOCC4)cc3)CC2)c(C)c1	–
7.8	–	–	O=C(NO)C1(S(=O)(=O)c2ccc(N3CCN(c4ccccc4F)CC3)cc2)CCOCC1	–
2.8	–	–	COc1ccccc1N1CCN(c2ccc(S(=O)(=O)C3(C(=O)NO)CCOCC3)cc2)CC1	–
11.4	–	–	Cc1ccccc1N1CCN(c2ccc(S(=O)(=O)C3(C(=O)NO)CCOCC3)cc2)CC1	–
13.8	–	–	O=C(NO)C1(S(=O)(=O)c2ccc(N3CCN(c4ccccc4)CC3)cc2)CCOCC1	–
–	3.7 nM	1 nM	O=C(NO)C1(S(=O)(=O)c2ccc(N3CCN(c4ccc(Cl)cc4)CC3)cc2)CCOCC1	bioavailability [3]: 7.4%; IC50 (Stromelysin-1): 130 nM; IC50 (Neutrophil collagenase): 1000 nM; IC50 (Interstitial collagenase): > 10000 nM; half-life [4]: 1.91 h
29	18.4 nM	0.5 nM	COc1ccc(N2CCN(c3ccc(S(=O)(=O)C4(C(=O)NO)CCOCC4)cc3)CC2)cc1	–
18.4	–	–	Cc1ccc(N2CCN(c3ccc(S(=O)(=O)C4(C(=O)NO)CCOCC4)cc3)CC2)cc1	–
16.5	330 nM	20 nM	O=C(NO)C1(S(=O)(=O)c2ccc(N3CCN(c4cccc(C(F)(F)F)c4)CC3)cc2)CCOCC1	–
211	3700 nM	17.5 nM	COc1ccccc1C1CCN(c2ccc(S(=O)(=O)C3(C(=O)NO)CCOCC3)cc2)CC1	–
21.4	700 nM	32.7 nM	Cc1ccccc1C1CCN(c2ccc(S(=O)(=O)C3(C(=O)NO)CCOCC3)cc2)CC1	–
6.1	48.5 nM	8 nM	COc1cccc(N2CCN(c3ccc(S(=O)(=O)C4(C(=O)NO)CCOCC4)cc3)CC2)c1	–

Source: ChEMBL document CHEMBL1158637, “Orally bioavailable dual MMP-1/MMP-14 sparing, MMP-13 selective alpha-sulfone hydroxamates” (Bioorg Med Chem Lett, 2010)
